Data on four compounds can be found in patent US20190183843A9, “USE OF DIANHYDROGALACTITOL OR DERIVATIVES OR ANALOGS THEREOF FOR TREATMENT OF PEDIATRIC CENTRAL NERVOUS SYSTEM MALIGNANCIES” (DelMar Pharmaceuticals, Inc., priority 2015, published 2019).

For series [1] the following is noted: cited from earlier work.
For series [2], the system named is cisplatin-resistant 2780CP-16, OVCAR-10, Hey and OVCA-433 tumor models. Briefly: MTT growth inhibition assay, 5-day drug exposure. Format: cell-based, human. As to conditions: 5-day exposure. The source says: (§1) The analysis of cytotoxicity, depicted as IC50 (concentration inhibiting growth of cells by 50%) or as fraction of cells affected (Fa) at a specified concentration of drug, is based on the data generated from the MTT growth inhibition assay following a 5-day drug exposure period. The IC50 values were generated by fitting Fa values from a range of drug concentrations to a four-parameter logistic dose-response sigmoidal equation using the Graphpad Prism v.6 software. Resistance factors (for the ovarian panel) were calculated as the ratio of IC50 in the specific tumor model to the IC50 in A2780.
(§2) Cytotoxicity was determined against cisplatin-sensitive A2780 and cisplatin-resistant 2780CP-16, OVCAR-10, Hey and OVCA-433 tumor models with different status for p53 and mismatch repair (MMR) DNA repair system (A2780: p53 wild-type, MMR proficient; 2780CP-16: heterogenic p53 wt/V172Fmut, MMR deficient; OVCAR-10: p53 V172F mutant, MMR proficient; HEY: p53 P72R mutant, MMR proficient; OVCA-433: p53 P72R mutant, MMR proficient). IC50 for dianhydrogalactitol was about 0.5 μM in A2780 cells and in the 2-4 μM range for the cisplatin-resistant models. The activity (as IC50) of dianhydrogalactitol relative to cisplatin and oxaliplatin is shown as bar plots in FIG. 38. […] Oxaliplatin, in contrast, had good potencies against both cisplatin-sensitive (0.2 μM) and cisplatin-resistant cells (0.2-0.6 μM).
(Tetrazolium dyes change colour on reduction, which living cells bring about.)

In series [3] the test system is MGMT-positive or -negative, MMR-proficient or -deficient cells. As to conditions: cited from earlier work.
Series [4] has as its target glycogen synthase kinase-30 (GSK-30) (Homo sapiens, UniProt P49841). As to conditions: cited from earlier work.
The subject of another series is A2780 cells. Briefly: MTT growth inhibition assay, 5-day drug exposure. Format: cell-based, human. As to conditions: 5-day exposure, cisplatin-sensitive A2780.
Excerpt: as §1, §2

Read-outs that look alike come from different tables or passages of the source.

Sequence of glycogen synthase kinase-30 (GSK-30) (P49841 whole entry): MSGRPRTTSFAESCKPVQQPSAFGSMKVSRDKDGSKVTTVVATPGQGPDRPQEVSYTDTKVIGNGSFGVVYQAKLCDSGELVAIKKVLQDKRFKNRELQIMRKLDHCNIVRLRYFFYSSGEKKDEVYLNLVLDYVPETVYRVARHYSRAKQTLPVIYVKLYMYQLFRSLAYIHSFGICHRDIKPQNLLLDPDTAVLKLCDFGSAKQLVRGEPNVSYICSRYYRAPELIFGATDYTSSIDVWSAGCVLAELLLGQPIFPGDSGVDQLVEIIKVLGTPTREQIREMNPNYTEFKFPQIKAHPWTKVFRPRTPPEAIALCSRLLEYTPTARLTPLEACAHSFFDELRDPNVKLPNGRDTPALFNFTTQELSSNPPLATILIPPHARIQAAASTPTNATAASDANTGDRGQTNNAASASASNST

In the case of `O[C@H]([C@H](O)[C@@H](O)CBr)[C@H](O)CBr` [dibromodulcitol], in series [1], the “absorption by the oral route” value was “rapid and fairly complete”.
For `N.N.[Cl][Pt][Cl]` [cisplatin], the IC50 (usually the concentration needed to halve the response being measured) in series [2] fell in the range of 3000 to 8000 nM. The sensitivity entry in series [3] (MGMT Negative, MMR-Deficient) is “Resistant”; in series [3] (MGMT Negative, MMR-Proficient) it was “Sensitive”; in series [3] (MGMT Positive, MMR-Deficient), “Resistant”; in series [3] (MGMT Positive, MMR-Proficient) it was “Sensitive”.
`CN1C(=O)/C(=C2/C(=O)Nc3ccccc32)c2ccccc21` [Meisoindigo]: in series [4], the “concentration inhibiting GSK” value is 5 to 50 nM.
On to `O=C1[O][Pt]2([NH][C@@H]3CCCC[C@H]3[NH]2)[O]C1=O` [oxaliplatin, reference compound], for which the results for the IC50 (with A2780 cells; in series [2]) were 200 nM and 200 to 600 nM, respectively.
